Reference: the OPERA property sets (Mansouri et al. 2018)
Peptide text beside a SMILES is read from it.

| Compound | logP |
| --- | --- |
| O=C(O)c1cc2ccccc2[nH]1 | 2.31 |
| CC(C)Cl | 1.9 |
| CC1OC(=O)c2ccccc21 (centres undefined) | 1.41 |
| O=C(O)Cc1ccc(Cl)cc1 | 2.12 |
| O=C(O)C(Cl)(Cl)Cl | 1.33 |
| O=S(=O)(Nc1ccccc1)C(F)F | 1.95 |
| Clc1ccc(-c2ccccc2)cc1 | 4.61 |
| CCOc1ccc(O)cc1 | 1.81 |
| CC(=O)CNc1ccccc1C(=O)O | 1.85 |
| CCOc1ccc(S(I)=C(N(C)C)N(C)C)cc1 (centres undefined) | -0.06 |
| Cc1ccco1 | 1.85 |
| NC(=O)Cc1cccnc1 | -0.71 |
| O=C(O)c1cccc2ccccc12 | 3.1 |
| COc1ccccc1C | 2.74 |
| COc1ccc(OC)c(Cc2cnc3nc(N)nc(N)c3c2C)c1 | 2.13 |
| Cc1cnnc2cc(Cl)ccc12 | 1.98 |
| O=C(Nc1ncnc2c1ncn2[C@@H]1O[C@H](CO)[C@@H](O)[C@H]1O)c1ccccc1 | -0.1 |
| CCOc1ccccc1S(I)=C(N(C)C)N(C)C (centres undefined) | -0.06 |
| CC12CCC(=O)C=C1CCC1C2C(O)CC2(C)C1CCC2(O)C(=O)COC(=O)CCCCCC(N)=O (centres undefined) | 2.3 |
| CC(C)c1ccc(OCC(=O)O)cc1 | 2.69 |
| Nc1ccc(Cc2ccc(N)cc2)cc1 | 1.59 |
| CC1=C(C)C(=O)C(C)=C(C)C1=O | 2.23 |
| NCCO | -1.31 |
| O=[N+]([O-])c1ccc2[nH]ccc2c1 | 2.53 |

| Compound | logP |
| --- | --- |
| CC(C)N(N=Nc1ccc(C(N)=O)cc1)C(C)C | 3 |
| CN(C)C(=O)C(C(=O)N(C)C)C(=O)N(C)C | -3.09 |
| CC(=O)Nc1cc(C)c(O)c(C)c1 | 1.11 |
| CCCCl | 2.04 |
| CC1CN(N=O)CC(C)O1 (centres undefined) | 0.32 |
| O=C(c1ccccc1)c1ccc(O)cc1 | 3.07 |
| COC(=O)c1ccc[nH]1 | 1.17 |
| O=[N+]([O-])c1ccc2sccc2c1 | 2.92 |
| Oc1cccc(C(F)(F)F)c1 | 2.95 |
| ClC1C=CC(Cl)C(Cl)C1Cl (centres undefined) | 3.08 |
| CC(=O)NC(Cc1c[nH]c2ccccc12)C(=O)NCC(=O)NC(Cc1ccccc1)C(N)=O (stereo not drawn) (Ac-Trp-Gly-Phe-NH2; configuration not given here) | 0.99 |
| NNC(=O)c1ccccc1N | -0.18 |
| CCCC(=O)OCC1CCC(n2cnc3c(=O)[nH]cnc32)O1 (centres undefined) | 0.11 |
| c1ccc2c(c1)COC2 | 1.76 |
| C1=Cc2ccc3c4c(ccc(c24)C1)-c1ccccc1-3 | 5.78 |
| CC1=NN(CCOc2ccc3ccccc3c2)C(=O)C1 | 2.74 |
| CSCS(=O)CC(C)NC(=O)C=Cc1c(C)[nH]c(=O)[nH]c1=O (centres undefined) | -0.7 |
| NS(=O)(=O)c1ccc(C(=O)c2ccncc2)cc1 | 0.56 |
| COc1c(Cl)ccc(Cl)c1C(=O)O | 2.21 |
| CC(=S)N(c1ccccc1)c1ccccc1 | 2.83 |
| COc1cc2c(c(OC)c1OC)-c1ccc(O)c(=O)cc1C(NC(C)=O)CC2 (centres undefined) | 1.2 |
| OCC(Cl)(Cl)Cl | 1.42 |
| O=[N+]([O-])c1cc[n+]([O-])c2ccccc12 | 1.09 |
| CC(=O)N[C@@H](Cc1ccccc1)C(=O)NCC(N)=O (Ac-Phe-Gly-NH2) | -0.5 |

| Compound | logP |
| --- | --- |
| NC(Cc1ccccc1)C(=O)OCn1ncc2c(=O)[nH]cnc21 (centres undefined) | 0.4 |
| CC1(C)CCC(C)(C)O1 | 2.06 |
| Cn1c(=O)cnc2ccccc21 | 0.79 |
| CN(C)CCOC(=O)c1ccc([N+](=O)[O-])cc1 | 1.7 |
| CCN(N=O)C(C)C | 0.9 |
| O=C1CCC(=O)N1c1ccccc1[N+](=O)[O-] | 0.36 |
| Cn1cccc1 | 1.21 |
| CCCCN(N=O)C(N)=O | 1.04 |
| CN(C)C(=O)OCc1ccc(Br)cc1 | 3.01 |
| CNCC(O)c1ccc(O)c(OC)c1 (centres undefined) | -0.64 |
| C[Si](C)(C)Cc1ccccc1 | 4.13 |
| Cc1cccc2ncc(-c3ccccc3)c(=O)n12 | 2.59 |
| N#Cc1cccc2cccnc12 | 1.39 |
| O=C(O)c1ccc(F)cc1 | 2.07 |
| CC(=O)Nc1nccs1 | 0.76 |
| CCC(C)Cl (centres undefined) | 2.33 |
| C#CCO | -0.38 |
| O=C1C2(Cl)C3(Cl)C4(Cl)C(Cl)(Cl)C5(Cl)C3(Cl)C1(Cl)C5(Cl)C24Cl (centres undefined) | 5.41 |
| CC(=O)OCC(=O)[C@@]1(O)[C@@H](C)C[C@H]2[C@@H]3CCC4=CC(=O)C=C[C@]4(C)[C@@]3(F)[C@@H](O)C[C@@]21C | 2.77 |
| CNC(=O)Nc1ccccc1 | 1.12 |
| CCNc1nc(Cl)nc(N(CC)CC)n1 | 3.34 |
| COc1cccc(OC(=O)N(C)C)c1 | 1.6 |
| c1ccc2c(c1)cnc1ccccc12 | 3.48 |
| CC(C)C(C#N)c1ccccc1 (centres undefined) | 2.33 |

| Compound | logP |
| --- | --- |
| CCCCCN | 1.49 |
| O=c1[nH]c(=O)n(C2CCCO2)cc1F (centres undefined) | -0.27 |
| CCCOc1ccccc1 | 3.18 |
| O=C1C=CC(=O)c2c(O)cccc21 | 1.92 |
| CNc1ccc([N+](=O)[O-])cc1 | 2.04 |
| Nc1c(S(=O)(=O)O)ccc2ccccc12 | -0.97 |
| CC(C)(C)NCCO | 0.41 |
| NC(=O)CCCc1ccccc1 | 1.41 |
| CCc1cccs1 | 2.87 |
| NC(=O)Nc1cccc(F)c1 | 1.29 |
| Nc1ccc(C(=O)O)c(F)c1 | 1.29 |
| CCCN(CC)CCC | 2.68 |
| Clc1cccc2nccnc12 | 1.75 |
| CC(=O)NCCCOc1cccc(CN2CCCCC2)c1 | 2.15 |
| O=[N+]([O-])c1cccc2ccccc12 | 3.19 |
| O=[N+]([O-])c1cccc(CO)c1 | 1.21 |
| CC(C)C(C)O (centres undefined) | 1.28 |
| O=[N+]([O-])c1cc2ccccc2nn1 | 0.73 |
| O=c1[nH]ncc2ccccc12 | 0.75 |
| NNC(=O)c1ccnc(-c2ccccc2)c1 | 1.36 |
| COC(=O)CCCCC(C)=O | 0.55 |
| O=C(O)CBr | 0.41 |
| CCC(C)(C)C | 3.82 |

| Compound | logP |
| --- | --- |
| COC(=O)c1cccc(N=NN(C)C)c1 | 3.12 |
| O=[N+]([O-])c1ccc(Cl)c(Cl)c1Cl | 3.61 |
| O=S(Cc1ccccc1)Cc1ccccc1 | 1.99 |
| CC(C)=C1C(=O)OC2CC(C)C3C=CC(=O)C3(C)C(O)C12 (centres undefined) | 1.47 |
| CCC(=O)c1ccccc1 | 2.19 |
| CCOC(=O)C(=Cc1ccc([N+](=O)[O-])cc1)C(=O)OCC | 3.03 |
| CC(=O)C(=Cc1ccc(C)cc1)C(C)=O | 2.14 |
| c1ccc(N2CCCC2)cc1 | 3.56 |
| CNC(=O)Oc1ccc(I)cc1 | 2.46 |
| CC(=O)N[C@@H](Cc1ccccc1)C(=O)NCC(=O)N[C@@H](CC(C)C)C(N)=O | 0.6 |
| CCCNCc1cccnc1 | 0.9 |
| O=C(NCC(O)CO)c1c(I)c(C(=O)NCC(O)CO)c(I)c(N(CCO)C(=O)CO)c1I (centres undefined) | -2.98 |
| CCC1=Nc2ccc(Cl)cc2S(=O)(=O)N1 | 1.62 |
| CCCCC1C(=O)NC(=O)NC1=O | 0.77 |
| CNC(=O)Oc1cc(C)ccc1C | 2.03 |
| NC(=O)CCl | -0.53 |
| COc1cccc(N(C)C(=S)Oc2cccc(C(C)(C)C)c2)n1 | 5.18 |
| Cc1ccc(NC(=O)N(C)C)cc1Cl | 2.41 |
| CCCC[N+](=O)[O-] | 1.47 |
| C1COCCO1 | -0.27 |
| CCCCCCCC(=O)OCC(=O)C1(O)CCC2C3CCC4=CC(=O)CCC4(C)C3C(O)CC21C (centres undefined) | 5.49 |
| O=C1C(=O)c2ccccc2-c2ccccc21 | 2.52 |
| NC(=O)NCc1ccccc1 | 0.73 |
| CCN(CC)CCNC(=O)c1cc(Cl)ccc1OC | 3.11 |

| Compound | logP |
| --- | --- |
| Clc1cc(Cl)c(-c2c(Cl)cc(Cl)cc2Cl)c(Cl)c1 | 7.55 |
| Nc1ccc(S(=O)(=O)Nc2cccnc2Cl)cc1 | 1.58 |
| CC(C)NC(=O)NO | 0.2 |
| CCN(CC)C(C)=O | 0.34 |
| COCc1ccc([N+](=O)[O-])o1 | 0.89 |
| COC(=O)/C=C\C(=O)OC | 0.22 |
| OCCc1ccncc1 | 0.1 |
| Cc1ccc(OCC(=O)NNC(C)C)cc1 | 1.81 |
| c1cncc(CCN2CCCC2)c1 | 1.34 |
| C=CCO | 0.17 |
| NC(=O)Nc1ccc(Oc2ccccc2)cc1 | 2.8 |
| O=C1NC(=O)C(c2ccccc2)(c2ccccc2)N1 | 2.47 |
| O=S1(=O)Nc2ccccc2N1 | 1.12 |
| O=c1[nH]c(=O)c2[nH]cnc2[nH]1 | -0.73 |
| CC(=O)N[C@@H](Cc1ccccc1)C(=O)N[C@@H](CCC(N)=O)C(N)=O | -1.03 |
| Oc1cccc(O)c1 | 0.8 |
| CN(CC(C)(C)C)N=O | 1.34 |
| CC1=NS(=O)(=O)c2ccccc2N1 | 0.29 |
| COc1ccc(CC(=O)O)cc1 | 1.42 |
| CCN(CC)c1nc(Cl)nc(NC(C)C)n1 | 3.94 |
| Clc1cc(Cl)c(Cl)c(Cl)c1Cl | 5.17 |
| CC(=O)[C@H]1CC[C@H]2[C@@H]3CC=C4C[C@@H](O)CC[C@]4(C)[C@H]3CC[C@]12C | 4.22 |
| O=NN(Cc1ccccc1)c1ccccc1 | 3.38 |
| CC(C)SC(C)C | 2.84 |

| Compound | logP |
| --- | --- |
| CCCCCCCCO | 3 |
| CNC(=O)Oc1ccccc1Br | 1.77 |
| NC(=O)NO | -1.8 |
| O=C(O)COc1ccc(C2CCCCC2)cc1 | 3.79 |
| C=CCN(CC=C)CC=C | 2.59 |
| C(=NN1CCCCC1)c1ccccc1 | 3.04 |
| N#Cc1ccccc1 | 1.56 |
| O=[N+]([O-])c1ccc(O/N=C/c2cc(Br)c(O)c(Br)c2)c([N+](=O)[O-])c1 | 3.3 |
| O=C(O)CCc1ccc(O)cc1 | 1.16 |
| CCN(CC)CC(=O)NC1CCc2ccccc21 (centres undefined) | 2.74 |
| CCCNC(C)C(=O)Nc1ccccc1C (centres undefined) | 2.11 |
| C=C(C)c1ccccc1 | 3.48 |
| CCCC(=O)O[C@H]1[C@H](C)O[C@@H](O[C@H]2[C@H](N(C)C)[C@@H](O)[C@H](O[C@H]3[C@@H](CC=O)C[C@@H](C)[C@@H](O)C=CC=CC[C@@H](C)OC(=O)C[C@@H](O)[C@@H]3OC)O[C@@H]2C)C[C@@]1(C)OC(=O)CC | 3.08 |
| COC(=O)c1ccc(-c2ncc([N+](=O)[O-])n2C)cc1 | 1.63 |
| O=C(O)CCCCCCc1ccccc1 | 3.63 |
| CCc1cc(-c2ccccc2)nnc1NCCN1CCOCC1 | 2.53 |
| Cc1cc(=O)oc2cc(O)ccc12 | 1.9 |
| O=C(O)CCc1ccccc1 | 1.84 |
| c1ccc(NC2=NCCN2)cc1 | 1.01 |
| Nc1ccc(C(=O)Oc2ccc(Cl)cc2)c(O)c1 | 3.6 |
